# Reference: US11993599B2, “Therapeutic compounds” (Genentech, Inc., priority 2021, dated 2024)
# What was measured:
# BRG1 = target: T1, BRG1 (Homo sapiens, UniProt P51532); assay: Immunofluorescence assay for BRG1 degradation in SW1573 cells; type: cell-based; details: 20 hours incubation; for DC50: immunofluorescence mean nuclear signal, read-out: BRG1 IF Degradation IC50; for Dmax: SW1573, 20 h, normalized to a known degrader control, read-out: BRG1 IF Degradation Sinf (%)
# T1 construct: either BRM primary antibody (Cell signaling Cat #11966) or BRG primary antibody (Abcam, ab 110641); endogenous in cells; host or cells: SW1573
# T1 sequence (P51532 whole entry): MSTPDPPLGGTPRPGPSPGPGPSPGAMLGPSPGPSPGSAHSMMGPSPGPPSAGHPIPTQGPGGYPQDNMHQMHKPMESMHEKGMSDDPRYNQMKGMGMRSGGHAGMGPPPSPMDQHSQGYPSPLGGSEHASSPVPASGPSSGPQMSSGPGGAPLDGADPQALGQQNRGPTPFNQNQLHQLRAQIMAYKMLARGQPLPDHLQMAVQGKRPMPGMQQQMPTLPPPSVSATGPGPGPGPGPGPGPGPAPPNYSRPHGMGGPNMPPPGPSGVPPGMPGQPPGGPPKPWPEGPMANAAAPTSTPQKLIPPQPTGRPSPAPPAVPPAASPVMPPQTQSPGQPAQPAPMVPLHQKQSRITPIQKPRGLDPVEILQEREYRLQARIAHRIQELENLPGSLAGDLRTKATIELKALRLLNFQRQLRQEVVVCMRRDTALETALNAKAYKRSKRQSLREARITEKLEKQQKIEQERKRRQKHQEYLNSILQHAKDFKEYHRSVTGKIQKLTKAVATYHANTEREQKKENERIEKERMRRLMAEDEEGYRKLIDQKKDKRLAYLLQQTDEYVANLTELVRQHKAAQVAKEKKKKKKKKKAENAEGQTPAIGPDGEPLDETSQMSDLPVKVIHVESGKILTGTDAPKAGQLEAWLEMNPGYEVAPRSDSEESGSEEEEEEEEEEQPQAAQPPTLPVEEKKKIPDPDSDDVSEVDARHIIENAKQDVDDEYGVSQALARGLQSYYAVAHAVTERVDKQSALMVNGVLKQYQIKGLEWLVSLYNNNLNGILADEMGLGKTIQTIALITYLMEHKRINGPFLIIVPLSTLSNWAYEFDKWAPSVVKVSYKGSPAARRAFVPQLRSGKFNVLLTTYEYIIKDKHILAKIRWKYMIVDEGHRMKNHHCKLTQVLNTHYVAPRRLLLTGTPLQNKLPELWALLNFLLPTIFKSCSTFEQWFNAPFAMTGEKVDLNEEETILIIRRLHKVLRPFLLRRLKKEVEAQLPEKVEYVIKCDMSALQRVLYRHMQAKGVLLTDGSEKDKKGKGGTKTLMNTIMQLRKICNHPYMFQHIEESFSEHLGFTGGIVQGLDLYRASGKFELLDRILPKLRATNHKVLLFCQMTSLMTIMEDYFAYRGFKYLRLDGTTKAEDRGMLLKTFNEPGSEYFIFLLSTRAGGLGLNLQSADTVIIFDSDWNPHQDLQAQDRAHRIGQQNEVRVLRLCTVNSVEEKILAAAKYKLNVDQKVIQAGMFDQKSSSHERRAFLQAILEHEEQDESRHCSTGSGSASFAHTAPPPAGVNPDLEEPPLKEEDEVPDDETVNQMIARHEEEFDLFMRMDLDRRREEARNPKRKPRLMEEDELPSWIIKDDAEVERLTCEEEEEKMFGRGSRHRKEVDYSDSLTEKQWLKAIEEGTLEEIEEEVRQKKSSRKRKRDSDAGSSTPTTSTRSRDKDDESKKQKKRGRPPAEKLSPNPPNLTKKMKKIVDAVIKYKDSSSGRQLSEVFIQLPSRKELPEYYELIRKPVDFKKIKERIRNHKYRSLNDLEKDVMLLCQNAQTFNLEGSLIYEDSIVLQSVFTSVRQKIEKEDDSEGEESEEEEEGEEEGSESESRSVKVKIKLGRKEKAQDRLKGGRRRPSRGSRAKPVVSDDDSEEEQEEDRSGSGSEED
# Description: (§1) Example B-2: Immunofluorescence Assay for BRM and BRG1 Degraders
# (§2) SW1573 cells were seeded at 3000 cells/well in 384 well plates. The next day, compounds were added using an Echo dispenser. After 20 hours of incubation with compound, cells were fixed with 4% formaldehyde then permeabilized with 0.2% Triton X-100 and blocked with 10% FCS. Fixed and permeabilized cells were treated overnight at 4° C. with either BRM primary antibody (Cell signaling Cat #11966) or BRG primary antibody (Abcam, ab 110641). Finally, cells were treated with fluorescently labeled secondary antibodies for 1 hr (Donkey anti-Rabbit IgG AF488, Life Technologies, A21206) and Hoechst nuclear stain (#H3569) was added for 30 minutes. Cells were washed with PBS in between each step and before imaging on an Opera Phenix microscope (Perkin Elmer). Harmony software (Perking Elmer) was used to quantify the mean nuclear signaling intensity of BRM or BRG signaling per cell in each well. Dose responses were determined from the concentration dependent response of mean nuclear signal intensity with data normalized to a known degrader control. Dose response curves were fit to a floating maximum to allow for calculation of the Dmax.
# (§3) Note that, in Table 5, the “Compound Number” corresponds to that used in Table 1. In Table 5, for BRM and BRG1 IF degradation IC50 (μM): A indicates <0.010 μM, B indicates 0.010-0.10 μM, and C indicates >0.10 μM; and for BRM and BRG1 IF degradation Sinf % D indicates 0-−30%, E indicates −30%-−70%, F indicates −71%-−120% and ND indicates the value was not determined.
# BRM = BRM (Homo sapiens, UniProt P51531); assay: Immunofluorescence assay for BRM degradation in SW1573 cells; type: cell-based; set-up: treated overnight at 4° C. with either BRM primary antibody (Cell signaling Cat #11966) or BRG primary antibody; endogenous in cells; host or cells: SW1573; details: 20 hours incubation; for DC50: immunofluorescence mean nuclear signal, read-out: BRM IF Degradation IC50; for BRM IF Degradation Sinf (%): normalized to a known degrader control
# Chain of BRM (P51531 whole entry): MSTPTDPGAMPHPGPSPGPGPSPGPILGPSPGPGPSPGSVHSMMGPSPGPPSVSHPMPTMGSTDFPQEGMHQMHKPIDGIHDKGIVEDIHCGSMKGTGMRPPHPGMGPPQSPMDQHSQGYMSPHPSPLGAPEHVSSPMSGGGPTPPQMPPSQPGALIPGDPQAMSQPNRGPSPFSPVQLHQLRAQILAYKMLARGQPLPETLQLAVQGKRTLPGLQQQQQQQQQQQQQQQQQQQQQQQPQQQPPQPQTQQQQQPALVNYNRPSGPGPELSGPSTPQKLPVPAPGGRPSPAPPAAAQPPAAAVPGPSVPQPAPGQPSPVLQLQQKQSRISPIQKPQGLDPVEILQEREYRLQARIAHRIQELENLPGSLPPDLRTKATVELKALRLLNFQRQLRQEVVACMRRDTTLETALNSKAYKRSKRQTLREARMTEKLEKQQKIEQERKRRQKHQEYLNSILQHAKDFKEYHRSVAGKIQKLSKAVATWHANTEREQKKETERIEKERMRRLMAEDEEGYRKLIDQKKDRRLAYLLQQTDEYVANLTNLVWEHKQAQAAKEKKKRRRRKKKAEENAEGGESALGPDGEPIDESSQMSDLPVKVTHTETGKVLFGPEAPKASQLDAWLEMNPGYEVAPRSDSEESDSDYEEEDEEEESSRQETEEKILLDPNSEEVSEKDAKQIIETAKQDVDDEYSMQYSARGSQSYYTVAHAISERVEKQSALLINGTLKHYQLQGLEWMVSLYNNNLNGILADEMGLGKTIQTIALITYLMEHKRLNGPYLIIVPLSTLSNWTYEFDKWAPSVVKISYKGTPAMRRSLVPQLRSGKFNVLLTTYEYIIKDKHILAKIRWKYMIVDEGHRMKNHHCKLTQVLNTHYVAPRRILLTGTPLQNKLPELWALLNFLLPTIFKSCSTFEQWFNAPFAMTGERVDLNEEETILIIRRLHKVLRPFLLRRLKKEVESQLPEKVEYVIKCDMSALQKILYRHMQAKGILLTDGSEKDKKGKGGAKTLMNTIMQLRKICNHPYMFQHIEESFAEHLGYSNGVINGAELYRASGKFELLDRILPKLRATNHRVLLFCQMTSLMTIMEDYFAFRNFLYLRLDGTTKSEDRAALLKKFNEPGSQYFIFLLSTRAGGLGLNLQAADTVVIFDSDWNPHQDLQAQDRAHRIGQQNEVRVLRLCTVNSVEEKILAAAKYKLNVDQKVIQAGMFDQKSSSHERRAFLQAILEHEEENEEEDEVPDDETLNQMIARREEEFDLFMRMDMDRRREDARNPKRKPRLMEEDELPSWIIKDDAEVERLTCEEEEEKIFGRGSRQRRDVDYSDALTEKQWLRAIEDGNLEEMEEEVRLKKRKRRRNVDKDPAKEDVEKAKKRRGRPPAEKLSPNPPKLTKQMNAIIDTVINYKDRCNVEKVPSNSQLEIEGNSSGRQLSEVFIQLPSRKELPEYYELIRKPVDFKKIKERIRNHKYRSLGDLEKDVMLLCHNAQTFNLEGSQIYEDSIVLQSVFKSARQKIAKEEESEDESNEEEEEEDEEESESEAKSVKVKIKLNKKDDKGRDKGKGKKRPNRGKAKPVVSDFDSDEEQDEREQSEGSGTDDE
# Description: as §1, §2, §3
SMILES,DC50 (BRG1) [nM],Dmax (BRG1) [%],DC50 (BRM) [nM],BRM IF Degradation Sinf (%) (BRM)
"Nc1nnc(-c2ccccc2O)cc1N1CC2CCC(C1)N2c1ccnc(C#CCN2CC3(CCCC3)C2)c1 [Compound 155, 2-[6-amino-5-[8-[2-[3-(2-azaspiro[3.4]octan-2-yl)prop-1-ynyl]-4-pyridyl]-3,8-diazabicyclo[3.2.1]octan-3-yl]pyridazin-3-yl]phenol]",< 10,30 to 70,< 10,E (E indicates −30%-−70%)
"Nc1nnc(-c2ccccc2O)cc1N1CC2CCC(C1)N2c1ccnc(C#CCN2CCCCC(O)C2)c1 (stereo not drawn) [Compound 242, 1-[3-[4-[3-[3-amino-6-(2-hydroxyphenyl)pyridazin-4-yl]-3,8-diazabicyclo[3.2.1]octan-8-yl]-2-pyridyl]prop-2-ynyl]azepan-3-ol]",< 10,30 to 70,< 10,F (F indicates −71%-−120%)
"CC1CN(CC#Cc2cc(N3C4CCC3CN(c3cc(-c5ccccc5O)nnc3N)C4)ccn2)C1 [Compound 172, 2-[6-amino-5-[8-[2-[3-(3-methylazetidin-1-yl)prop-1-ynyl]-4-pyridyl]-3,8-diazabicyclo[3.2.1]octan-3-yl]pyridazin-3-yl]phenol]",10 to 100,71 to 120,< 10,E (E indicates −30%-−70%)
"Nc1nnc(-c2ccccc2O)cc1N1CC2CCC(C1)N2c1ccnc(C#CCN2CC(F)(F)C2)c1 [Compound 223, 2-[6-amino-5-[8-[2-[3-(3,3-difluoroazetidin-1-yl)prop-1-ynyl]-4-pyridyl]-3,8-diazabicyclo[3.2.1]octan-3-yl]pyridazin-3-yl]phenol]",< 10,30 to 70,10 to 100,E (E indicates −30%-−70%)
"CC1CN(CC#Cc2cc(N3C4CCC3CN(c3cc(-c5ccccc5O)nnc3N)C4)ccn2)CC(C)O1 (stereo not drawn) [Compound 79, 2-[6-amino-5-[8-[2-[3-(2,6-dimethylmorpholin-4-yl)prop-1-ynyl]-4-pyridyl]-3,8-diazabicyclo[3.2.1]octan-3-yl]pyridazin-3-yl]phenol]",> 100,,10 to 100,E (E indicates −30%-−70%)
"CC(C)(N)C#Cc1cc(N2C3CCC2CN(c2cc(-c4ccccc4O)nnc2N)C3)ccn1 [Compound 36, 2-[6-amino-5-[8-[2-(3-amino-3-methyl-but-1-ynyl)-4-pyridyl]-3,8-diazabicyclo[3.2.1]octan-3-yl]pyridazin-3-yl]phenol]",10 to 100,30 to 70,10 to 100,E (E indicates −30%-−70%)
"CN1C[C@@H]2CN(CC#Cc3cc(N4C5CCC4CN(c4cc(-c6ccccc6O)nnc4N)C5)ccn3)C[C@@H]2C1 [Compound 108, 2-[5-[8-[2-[3-[(3aS,6aR)-2-methyl-1,3,3a,4,6,6a-hexahydropyrrolo[3,4-c]pyrrol-5-yl]prop-1-ynyl]-4-pyridyl]-3,8-diazabicyclo[3.2.1]octan-3-yl]-6-amino-pyridazin-3-yl]phenol]",> 100,,> 100,E (E indicates −30%-−70%)
"COC[C@@H]1CCN1CC#Cc1cc(N2C3CCC2CN(c2cc(-c4ccccc4O)nnc2N)C3)ccn1 [Compound 186, 2-[6-amino-5-[8-[2-[3-[(2S)-2-(methoxymethyl)azetidin-1-yl]prop-1-ynyl]-4-pyridyl]-3,8-diazabicyclo[3.2.1]octan-3-yl]pyridazin-3-yl]phenol]",10 to 100,30 to 70,< 10,E (E indicates −30%-−70%)
"CC1(O)CCN(CC#Cc2cc(N3C4CCC3CN(c3cc(-c5ccccc5O)nnc3N)C4)ccn2)C1 (stereo not drawn) [Compound 62, 1-[3-[4-[3-[3-amino-6-(2-hydroxyphenyl)pyridazin-4-yl]-3,8-diazabicyclo[3.2.1]octan-8-yl]-2-pyridyl]prop-2-ynyl]-3-methyl-pyrrolidin-3-ol]",< 10,30 to 70,< 10,E (E indicates −30%-−70%)
"Nc1nnc(-c2ccccc2O)cc1N1CC2CCC(C1)N2c1ccnc(C#CCN2CCCCC(F)(F)C2)c1 [Compound 181, 2-[6-amino-5-[8-[2-[3-(3,3-difluoroazepan-1-yl)prop-1-ynyl]-4-pyridyl]-3,8-diazabicyclo[3.2.1]octan-3-yl]pyridazin-3-yl]phenol]",10 to 100,30 to 70,10 to 100,F (F indicates −71%-−120%)
"Nc1nnc(-c2ccccc2O)cc1N1CC2CCC(C1)N2c1ccnc(C#CCN2CCC3(C2)CC3(F)F)c1 (stereo not drawn) [Compound 84, 2-[6-amino-5-[8-[2-[3-(2,2-difluoro-5-azaspiro[2.4]heptan-5-yl)prop-1-ynyl]-4-pyridyl]-3,8-diazabicyclo[3.2.1]octan-3-yl]pyridazin-3-yl]phenol]",> 100,,< 10,E (E indicates −30%-−70%)
"CN(CC#Cc1cc(N2C3CCC2CN(c2cc(-c4ccccc4O)nnc2N)C3)ccn1)CC(=O)N1CCOCC1 [Compound 85, 2-[3-[4-[3-[3-amino-6-(2-hydroxyphenyl)pyridazin-4-yl]-3,8-diazabicyclo[3.2.1]octan-8-yl]-2-pyridyl]prop-2-ynyl-methyl-amino]-1-morpholino-ethanone]",> 100,,> 100,E (E indicates −30%-−70%)
"Nc1nnc(-c2ccccc2O)cc1N1CC2CCC(C1)N2c1ccnc(C#CCN2CC(Oc3ccccc3)C2)c1 [Compound 226, 2-[6-amino-5-[8-[2-[3-(3-phenoxyazetidin-1-yl)prop-1-ynyl]-4-pyridyl]-3,8-diazabicyclo[3.2.1]octan-3-yl]pyridazin-3-yl]phenol]",< 10,30 to 70,10 to 100,E (E indicates −30%-−70%)
"Nc1nnc(-c2ccccc2O)cc1N1CC2CCC(C1)N2c1ccnc(C#CCN2Cc3cccnc3C2)c1 [Compound 56, 2-[6-amino-5-[8-[2-[3-(5,7-dihydropyrrolo[3,4-b]pyridin-6-yl)prop-1-ynyl]-4-pyridyl]-3,8-diazabicyclo[3.2.1]octan-3-yl]pyridazin-3-yl]phenol]",> 100,0 to 30,10 to 100,E (E indicates −30%-−70%)
"CNC(=O)C12CC(CN1CC#Cc1cc(N3C4CCC3CN(c3cc(-c5ccccc5O)nnc3N)C4)ccn1)C2 [Compound 148, 2-[3-[4-[3-[3-amino-6-(2-hydroxyphenyl)pyridazin-4-yl]-3,8-diazabicyclo[3.2.1]octan-8-yl]-2-pyridyl]prop-2-ynyl]-N-methyl-2-azabicyclo[2.1.1]hexane-1-carboxamide]",> 100,30 to 70,10 to 100,E (E indicates −30%-−70%)
"Nc1nnc(-c2ccccc2O)cc1N1CC2CCC(C1)N2c1cnnc(C#CCN2CCCCCC2)c1 [Compound 246, 2-(6-amino-5-(8-(6-(3-(azepan-1-yl)prop-1-yn-1-yl)pyridazin-4-yl)-3,8-diazabicyclo[3.2.1]octan-3-yl)pyridazin-3-yl)phenol]",< 10,71 to 120,10 to 100,F (F indicates −71%-−120%)
"CNC(=O)[C@H]1CCN(CC#Cc2cc(N3C4CCC3CN(c3cc(-c5ccccc5O)nnc3N)C4)ccn2)C1 [Compound 122, (3S)-1-[3-[4-[3-[3-amino-6-(2-hydroxyphenyl)pyridazin-4-yl]-3,8-diazabicyclo[3.2.1]octan-8-yl]-2-pyridyl]prop-2-ynyl]-N-methyl-pyrrolidine-3-carboxamide]",10 to 100,30 to 70,10 to 100,F (F indicates −71%-−120%)
"Nc1nnc(-c2ccccc2O)cc1N1CC2CCC(C1)N2c1ccnc(C#CCN2CC3COCC3C2)c1 (stereo not drawn) [Compound 76, 2-[5-[8-[2-[3-(1,3,3a,4,6,6a-hexahydrofuro[3,4-c]pyrrol-5-yl)prop-1-ynyl]-4-pyridyl]-3,8-diazabicyclo[3.2.1]octan-3-yl]-6-amino-pyridazin-3-yl]phenol]",< 10,0 to 30,< 10,E (E indicates −30%-−70%)
"Nc1nnc(-c2ccccc2O)cc1N1CC2CCC(C1)N2c1ccnc(C#CCN2C[C@H]3CCCC[C@H]3C2)c1 [Compound 60, 2-[5-[8-[2-[3-[(3aS,7aR)-1,3,3a,4,5,6,7,7a-octahydroisoindol-2-yl]prop-1-ynyl]-4-pyridyl]-3,8-diazabicyclo[3.2.1]octan-3-yl]-6-amino-pyridazin-3-yl]phenol]",< 10,30 to 70,< 10,E (E indicates −30%-−70%)
